The values below are quoted from earlier work in patent publication US9834755B2, “Compositions and methods for enhanced generation of hematopoietic stem/progenitor cells” (FRED HUTCHINSON CANCER RESEARCH CENTER, priority 2011, dated 2017).

Molecules are shown by their SMILES.

In this series the test system is CD34+ cells. Particulars: cited from earlier work.
In general, EC50 refers to the concentration that produces a half-maximal response. Take `CC(C)n1cnc2c(NCCc3ccc(O)cc3)nc(-c3cncc(F)c3)nc21` [Example 134]: the EC50 is 200 nM.
As for `CC(C)n1cnc2c(NCCc3ccc(O)cc3)nc(-c3cnccc3C#N)nc21` [Example 143], the EC50 is 4300 nM.
Turning to `CC(C)n1cnc2c(NCCc3ccc(O)cc3)nc(-c3cccc4cnccc34)nc21` [Example 145], the EC50 is 5400 nM.
Take `Fc1cncc(-c2nc(NCCc3c[nH]c4ccccc34)c3ncn(C4CCOC4)c3n2)c1` (stereo not shown) [Example 158]: the EC50 was 12 nM.
